Reference: patent US20040219607A1, “Ligand screening and design by X-ray crystallography” (priority 1998, published 2004)
Like-named read-outs stand apart in the source and are kept apart here.

Columns and labels:
VanX = VanX (Enterococcus faecium, UniProt Q06241); experiment: CrystaLEAD crystallographic screening of VanX crystals; settings: crystals soaked in mixtures of 7-10 compounds
human urokinase (μUK) = biological target: T1, human urokinase (μUK) (Homo sapiens, UniProt P00749, C299A/N322Q); experiment: Urokinase inhibition constants by S-2444 chromogenic activity; format: biochemical
T1 construct: μUK (UK amino acids Ile^159-Lys^404 that contain Ala^279Gln^302); made in house; host or cells: baculovirus-infected High-Five insect cells or Pichia pastoris GS115 (secreted)
Experimental: Assays were completed at both pH 6.5 (0.1 M NaPO4) and 7.4 (50 mM Tris).

μUK = μUK (Homo sapiens, UniProt P00749, C299A/N322Q); settings: for binding at the urokinase active site seen in Fo-Fc electron density map: crystal soaked in mixture of 6 to 7 compounds, 3.3 to 5.2 mM each, compound 31 soaked individually
ErmC′ = biological target: T2, ErmC′ (Bacillus subtilis, UniProt P13956); experiment: CrystaLEAD crystallographic screening of ErmC′ crystals; format: binding; settings: adenosine library, mixtures of 8-9 compounds
T2 construct: made in house; host or cells: E. coli BL21(DE3)/pLysS with pTERM31 (pET24+ derivative)
Excerpt: The adenosine library consisted of 59 compounds. The library was divided into 7 mixtures of 8-9 shape-diverse compounds and screened by the CrystaLEAD™ method. […] Equal volumes of each compound were mixed to assemble the mixture of […].
Typical usable data were 80-90% complete at 3.4-3.6 Å resolution with merging R-factors of 7-16%.

[1] = Oral bioavailability in the rat; settings: in vivo, 10 mg/kg dose
[2] = pH 6.5 (0.1 M NaPO4), S-2444 substrate, read-out: Ki (pH 6.5)
[3] = pH 7.4 (50 mM Tris), S-2444 substrate, read-out: Ki (pH 7.4)

Sequence of VanX (Q06241 whole entry): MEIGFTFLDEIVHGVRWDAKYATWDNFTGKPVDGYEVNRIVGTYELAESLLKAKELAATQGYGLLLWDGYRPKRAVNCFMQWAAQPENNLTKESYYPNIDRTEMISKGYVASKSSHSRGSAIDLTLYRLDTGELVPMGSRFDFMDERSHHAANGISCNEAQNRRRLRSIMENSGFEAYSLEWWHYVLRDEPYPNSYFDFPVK
T2 sequence (P13956 whole entry): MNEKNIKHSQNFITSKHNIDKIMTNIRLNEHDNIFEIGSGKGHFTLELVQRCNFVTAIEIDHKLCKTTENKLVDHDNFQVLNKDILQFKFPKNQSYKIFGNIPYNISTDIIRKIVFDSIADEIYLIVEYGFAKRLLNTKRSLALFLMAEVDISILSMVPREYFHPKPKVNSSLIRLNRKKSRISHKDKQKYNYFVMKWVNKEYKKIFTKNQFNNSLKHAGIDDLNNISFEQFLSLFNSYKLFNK

In the case of `O=C(O)CCC1CCCC1` [Compound 37], the “binding at the VanX active site seen in electron density map” value (from here on “binding at the VanX active site seen”) (VanX) is reported as “found to bind”.
With `O=C(O)C1CCCC1` [Compound 36] the “binding at the VanX active site seen” value (VanX) was “bound”.
In the case of `O=C(O)C(=O)CS` [Compound 39], the “binding at the VanX active site seen” value (VanX) is reported as “bound”.
With `Cc1ccc(N)nc1` [Compound 31] the Ki (human urokinase (μUK); Ki (pH 6.5)) was > 500 µM, the Ki (human urokinase (μUK); Ki (pH 7.4)) was > 500 µM and the “binding at the urokinase active site seen in Fo-Fc electron density map” value (“binding … in Fo-Fc electron density map” below) (μUK) was “found to bind”. The pKa (pKa of CrystaLEAD hits) was 7.
In the case of `OCC1OC(n2cnc3c(NCc4ccccc4)ncnc32)C(O)C1O` (stereo not drawn) [Compound 44], the “binding to ErmC′ seen in electron density map” value (ErmC′) is reported as “hits”.
In the case of `N[C@@H](CS)C(=O)O` [Compound 41], the “binding at the VanX active site seen” value (VanX) is reported as “binding”.
With `OCC1OC(n2cnc3c(NC4CCCCC4)ncnc32)C(O)C1O` (stereo not drawn) [Compound 45] the “binding to ErmC′ seen in electron density map” value (ErmC′) was “hits”.
For `Nc1ccc2c(c1)CC=N2` [Compound 22, 5-aminoindole], the Ki (human urokinase (μUK); [2]) was 200 µM, the Ki (human urokinase (μUK); [3]) was > 500 µM and the “binding … in Fo-Fc electron density map” value (μUK) was “found to bind”. It also gave a pKa (pKa of CrystaLEAD hits) of 6.
For `Nc1ccc2cccc(O)c2n1` [Compound 19, 2-amino-8-hydroxyquinoline], the Ki (human urokinase (μUK); Ki (pH 7.4), pH 7.4 (50 mM Tris), S-2444 substrate) was 137 µM, the Ki (human urokinase (μUK); Ki at pH 6.5, pH 6.5, restated in Example 3) was 56 µM and the “binding … in Fo-Fc electron density map” value (μUK) was “bound”. For the same compound, the “binding at the urokinase active site seen in electron density map, 100 compound mixture” value (μUK; mixture of 100 compounds spiked with compound 19 at 180 μM, 1% DMSO, 4 hours 15 minutes soak) was “positive hit” and the pKa (pKa of CrystaLEAD hits) was 7.3.
Compound `Nc1ccc2cccc(Nc3ncccn3)c2n1` [Compound 35, 8-aminopyrimidinyl-2-aminoquinoline] has a bioavailability [1] of 30 to 40%.
With `Cc1nc(N)ccc1Br` [Compound 5] the Ki (human urokinase (μUK); [2]) was > 500 µM, the Ki (human urokinase (μUK); [3]) was > 500 µM and the “binding … in Fo-Fc electron density map” value (μUK) was “binder”. The pKa (pKa of CrystaLEAD hits) was 6.
